Our source for the relative viability values is the supplement of paper PMC10307832.

What all share (assay): relative viability (nuclei count vs DMSO), 5 days (fraction); higher = more cells survive
Compound in assay [1]: CC1=CC(=C(N1C2=CC=C(C=C2)Cl)C)C(=O)CN3CCCCC3 [IU1-47] + NC(=O)Nc1cc(-c2cccc(F)c2)sc1C(=O)N[C@H]1CCCNC1 [AZD7762] (partner 0.2 µM)
The gist of the method:
(§1)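 After 5 days of treatment, lung cancer cells in 1536-well plates were fixed and stained in a single step (final 0.05% Triton X-100, 1% formaldehyde, 1 ug/ml Hoechst) and their nuclei counted on 4× images. Treatment had been applied by pin tool the day after seeding as one drug alone or as a fixed anchor-drug dose with five library-drug doses (not always all listed) in √10 steps. Relative viability is the nuclei count of treated wells divided by that of vehicle wells, and values are medians of duplicate plates.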

Compound in assay [2]: CC1=CC(=C(N1C2=CC=C(C=C2)Cl)C)C(=O)CN3CCCCC3 [IU1-47] + O=C(c1cc(Cc2n[nH]c(=O)c3ccccc23)ccc1F)N1CCN(C(=O)C2CC2)CC1 [Olaparib] (partner 8 µM)
An outline of the steps:
as §1

Compound in assay [3]: Cc1nc(C(=O)NCC(=O)O)c(O)c2ccc(Oc3ccccc3)cc12 [FG-4592] + COc1cc2c(Oc3ccc(NC(=O)C4(C(=O)Nc5ccc(F)cc5)CC4)cc3F)ccnc2cc1OCCCN1CCOCC1 [Foretinib] (partner 0.25 µM)
An outline of the steps: as §1

Compound in assay [4]: Cc1nc(C(=O)NCC(=O)O)c(O)c2ccc(Oc3ccccc3)cc12 [FG-4592] + C[C@@H](Oc1cc(-c2cnn(C3CCNCC3)c2)cnc1N)c1c(Cl)ccc(F)c1Cl [Crizotinib] (partner 1 µM)
The gist of the method:
as §1

For NCI-H2347, the relative viability in assay [1] (first compound 0.08 µM) is 0.78; in assay [1] (first compound 0.253 µM) it was 0.845; in assay [1] (first compound 0.8 µM), 0.865; in assay [1] (first compound 2.53 µM), 0.79; in assay [1] (first compound 8 µM), 0.621; in assay [2] (first compound 0.08 µM), 0.652. Further, the relative viability in assay [2] (first compound 0.253 µM) amounted to 0.607; in assay [2] (first compound 0.8 µM) it was 0.628; in assay [2] (first compound 2.53 µM), 0.562; in assay [2] (first compound 8 µM) it was 0.603; in assay [3] (first compound 0.253 µM) it was 0.618; in assay [3] (first compound 0.8 µM) it was 0.885. Further, the relative viability worked out at 0.857 in assay [3] (first compound 2.53 µM); 1.04 in assay [3] (first compound 8 µM); 0.668 in assay [4] (first compound 0.08 µM); 0.58 in assay [4] (first compound 0.8 µM); 0.724 in assay [4] (first compound 2.53 µM); 0.874 in assay [4] (first compound 8 µM).

As to NCI-H2405, the relative viability in assay [1] (first compound 0.08 µM) amounted to 0.795; in assay [1] (first compound 0.253 µM), 0.804; in assay [1] (first compound 0.8 µM), 0.853; in assay [1] (first compound 2.53 µM), 0.815; in assay [1] (first compound 8 µM) it was 0.739; in assay [2] (first compound 0.08 µM), 0.876. Also, the relative viability in assay [2] (first compound 0.253 µM) was 0.871; in assay [2] (first compound 0.8 µM), 0.956; in assay [2] (first compound 2.53 µM) it was 0.91; in assay [2] (first compound 8 µM), 0.945; in assay [3] (first compound 0.08 µM) it was 0.962; in assay [3] (first compound 0.8 µM), 1.03. The relative viability in assay [3] (first compound 2.53 µM) is 1.02; in assay [3] (first compound 8 µM) it was 1.14; in assay [4] (first compound 0.08 µM), 0.665; in assay [4] (first compound 0.253 µM), 0.657; in assay [4] (first compound 0.8 µM), 0.878; in assay [4] (first compound 2.53 µM), 0.857. Moreover, in assay [4] (first compound 8 µM), the relative viability turned out to be 0.87.

NCI-H3122: the relative viability in assay [1] (first compound 0.08 µM) was found to be 1.08; in assay [1] (first compound 0.253 µM), 1.08; in assay [1] (first compound 0.8 µM), 1.02; in assay [1] (first compound 2.53 µM) it was 1.02; in assay [1] (first compound 8 µM) it was 0.88; in assay [2] (first compound 0.08 µM), 0.644. Besides, the relative viability in assay [2] (first compound 0.253 µM) came out at 0.665; in assay [2] (first compound 0.8 µM), 0.692; in assay [2] (first compound 2.53 µM), 0.692; in assay [2] (first compound 8 µM) it was 0.696; in assay [3] (first compound 0.08 µM) it was 0.957; in assay [3] (first compound 0.253 µM), 0.952. Moreover, the relative viability in assay [3] (first compound 0.8 µM) amounted to 0.934; in assay [3] (first compound 2.53 µM) it was 0.993; in assay [3] (first compound 8 µM) it was 0.921; in assay [4] (first compound 0.08 µM) it was 0.277; in assay [4] (first compound 0.253 µM) it was 0.271; in assay [4] (first compound 0.8 µM), 0.26. For the same cell line, the results for the relative viability in assay [4] (first compound 2.53 µM) and in assay [4] (first compound 8 µM) were 0.3 and 0.255, respectively.

As to PC-3 [JPC-3], the relative viability in assay [1] (first compound 0.08 µM) turned out to be 0.72; in assay [1] (first compound 0.253 µM), 0.856; in assay [1] (first compound 0.8 µM) it was 0.866; in assay [1] (first compound 2.53 µM) it was 0.828; in assay [1] (first compound 8 µM) it was 0.741; in assay [2] (first compound 0.08 µM), 1.19. Moreover, the relative viability in assay [2] (first compound 0.253 µM) was 1.2; in assay [2] (first compound 0.8 µM), 1.14; in assay [2] (first compound 2.53 µM) it was 1.11; in assay [2] (first compound 8 µM) it was 1.04; in assay [3] (first compound 0.08 µM) it was 1.09; in assay [3] (first compound 0.253 µM) it was 0.937. For the same cell line, the relative viability in assay [3] (first compound 0.8 µM) is 1.06; in assay [3] (first compound 2.53 µM), 1.04; in assay [3] (first compound 8 µM), 1.02; in assay [4] (first compound 0.08 µM), 1; in assay [4] (first compound 0.253 µM) it was 0.905; in assay [4] (first compound 0.8 µM) it was 1.12. Also, the relative viability was found to be 0.98 in assay [4] (first compound 2.53 µM) and 0.988 in assay [4] (first compound 8 µM).

On to PC-14, for which the relative viability in assay [1] (first compound 0.08 µM) stood at 0.404; in assay [1] (first compound 0.253 µM), 0.345; in assay [1] (first compound 0.8 µM), 0.377; in assay [1] (first compound 2.53 µM) it was 0.314; in assay [1] (first compound 8 µM), 0.275; in assay [2] (first compound 0.08 µM) it was 0.197. For the same cell line, the relative viability amounted to 0.308 in assay [2] (first compound 0.253 µM); 0.204 in assay [2] (first compound 0.8 µM); 0.238 in assay [2] (first compound 2.53 µM); 0.233 in assay [2] (first compound 8 µM); 1.09 in assay [3] (first compound 0.08 µM); 0.997 in assay [3] (first compound 0.253 µM). Besides, the relative viability in assay [3] (first compound 0.8 µM) is 1; in assay [3] (first compound 2.53 µM), 0.965; in assay [3] (first compound 8 µM), 0.987; in assay [4] (first compound 0.08 µM) it was 0.893; in assay [4] (first compound 0.253 µM) it was 0.863; in assay [4] (first compound 0.8 µM), 1.02. For the same cell line, the relative viability in assay [4] (first compound 2.53 µM) is 0.961; in assay [4] (first compound 8 µM) it was 0.922.

Regarding RERF-LC-KJ, the relative viability stood at 1.42 in assay [1] (first compound 0.08 µM); 1.17 in assay [1] (first compound 0.253 µM); 1.18 in assay [1] (first compound 0.8 µM); 0.6 in assay [1] (first compound 2.53 µM); 0.823 in assay [1] (first compound 8 µM); 0.867 in assay [2] (first compound 0.08 µM). Besides, the relative viability in assay [2] (first compound 0.253 µM) was found to be 0.916; in assay [2] (first compound 0.8 µM) it was 0.894; in assay [2] (first compound 2.53 µM), 0.943; in assay [2] (first compound 8 µM), 0.789; in assay [3] (first compound 0.08 µM), 0.853; in assay [3] (first compound 0.253 µM), 0.868. Also, the relative viability in assay [3] (first compound 0.8 µM) was found to be 0.817; in assay [3] (first compound 2.53 µM) it was 0.888; in assay [3] (first compound 8 µM), 0.771; in assay [4] (first compound 0.08 µM), 0.798; in assay [4] (first compound 0.253 µM), 0.8; in assay [4] (first compound 0.8 µM) it was 0.849. Moreover, the relative viability in assay [4] (first compound 2.53 µM) is 0.837; in assay [4] (first compound 8 µM) it was 0.771.
